From ChEMBL document CHEMBL1201862, “PubChem BioAssay data set” (2004)
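Results reflect a 48-hour exposure of cells in 96-well plates to compound at five concentrations. Here, GI50 denotes the concentration required for 50% inhibition of growth.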 Calls of active or inactive are those of the source. No stated cut-off is given here; in the data, active = GI50 up to about 1.1 µM and inactive = higher.

What was measured:
Experiment in all cases: NCI anticancer screen, dose series, 48 h
786-0 = system: 786-0
A498 = system: A498
A549 = system: A549
ACHN = system: ACHN
CAKI-1 = system: CAKI-1
CCRF-CEM = system: CCRF-CEM
COLO 205 = system: COLO 205
DLD-1 = system: DLD-1
DMS-114 = system: DMS-114
DMS-273 = system: DMS-273
EKVX = system: EKVX
HCC 2998 = system: HCC 2998
HCT-116 = system: HCT-116
HCT-15 = system: HCT-15
HL-60 = system: HL-60
HOP-18 = system: HOP-18
HOP-62 = system: HOP-62
HOP-92 = system: HOP-92
HT-29 = system: HT-29
IGROV-1 = system: IGROV-1
K562 = system: K562
KM-20L2 = system: KM-20L2
KM12 = system: KM12
LOX IMVI = system: LOX IMVI
LXFL 529 = system: LXFL 529
M14 = system: M14
M19-MEL = system: M19-MEL
MOLT-4 = system: MOLT-4
Malme-3M = system: Malme-3M
NCI-H226 = system: NCI-H226
NCI-H23 = system: NCI-H23
NCI-H460 = system: NCI-H460
NCI-H522 = system: NCI-H522
OVCAR-3 = system: OVCAR-3
OVCAR-4 = system: OVCAR-4
OVCAR-5 = system: OVCAR-5
OVCAR-8 = system: OVCAR-8
RPMI-8226 = system: RPMI-8226
RXF 393 = system: RXF 393
RXF 631 = system: RXF 631
SF-268 = system: SF-268
SF-295 = system: SF-295
SF-539 = system: SF-539
SK-MEL-28 = system: SK-MEL-28
SK-MEL-2 = system: SK-MEL-2
SK-MEL-5 = system: SK-MEL-5
SK-OV-3 = system: SK-OV-3
SN12C = system: SN12C
SNB-19 = system: SNB-19
SNB-75 = system: SNB-75
SNB-78 = system: SNB-78
SR = system: SR
SW-620 = system: SW-620
TK-10 = system: TK-10
U-251 = system: U-251
UACC-257 = system: UACC-257
UACC-62 = system: UACC-62
UO-31 = system: UO-31
XF498 = system: XF498

Cc1ccc(NC(=O)C(=O)C2C(=O)NC(=O)NC2=O)c(C)c1
GI50 (786-0): > 100 µM (inactive) | GI50 (A498): > 100 µM (inactive) | GI50 (A549): > 100 µM (inactive) | GI50 (ACHN): > 100 µM (inactive) | GI50 (CAKI-1): > 100 µM (inactive) | GI50 (CCRF-CEM): > 100 µM (inactive) | GI50 (COLO 205): 13.8 µM (inactive) | GI50 (DLD-1): > 100 µM (inactive) | GI50 (DMS-114): > 100 µM (inactive) | GI50 (DMS-273): > 100 µM (inactive) | GI50 (EKVX): > 100 µM (inactive) | GI50 (HCC 2998): > 100 µM (inactive) | GI50 (HCT-116): > 100 µM (inactive) | GI50 (HCT-15): > 100 µM | GI50 (HL-60): > 100 µM (inactive) | GI50 (HOP-18): > 100 µM (inactive) | GI50 (HOP-62): > 100 µM (inactive) | GI50 (HOP-92): > 100 µM (inactive) | GI50 (HT-29): > 100 µM (inactive) | GI50 (IGROV-1): > 100 µM (inactive) | GI50 (K562): > 100 µM (inactive) | GI50 (KM-20L2): > 100 µM (inactive) | GI50 (KM12): > 100 µM (inactive) | GI50 (LOX IMVI): > 100 µM (inactive) | GI50 (LXFL 529): > 100 µM (inactive) | GI50 (M14): > 100 µM (inactive) | GI50 (M19-MEL): > 100 µM (inactive) | GI50 (MOLT-4): > 100 µM (inactive) | GI50 (Malme-3M): > 100 µM (inactive) | GI50 (NCI-H226): 17.5 µM (inactive) | GI50 (NCI-H23): > 100 µM (inactive) | GI50 (NCI-H460): > 100 µM (inactive) | GI50 (NCI-H522): > 100 µM (inactive) | GI50 (OVCAR-3): > 100 µM (inactive) | GI50 (OVCAR-4): > 100 µM (inactive) | GI50 (OVCAR-5): > 100 µM (inactive) | GI50 (OVCAR-8): > 100 µM (inactive) | GI50 (RPMI-8226): > 100 µM (inactive) | GI50 (RXF 393): > 100 µM (inactive) | GI50 (RXF 631): > 100 µM (inactive) | GI50 (SF-268): > 100 µM (inactive) | GI50 (SF-295): > 100 µM (inactive) | GI50 (SF-539): > 100 µM (inactive) | GI50 (SK-MEL-28): > 100 µM (inactive) | GI50 (SK-MEL-2): > 100 µM (inactive) | GI50 (SK-MEL-5): > 100 µM (inactive) | GI50 (SK-OV-3): > 100 µM (inactive) | GI50 (SN12C): 14.9 µM (inactive) | GI50 (SNB-19): > 100 µM (inactive) | GI50 (SNB-75): > 100 µM (inactive) | GI50 (SNB-78): > 100 µM (inactive) | GI50 (SR): > 100 µM (inactive) | GI50 (SW-620): > 100 µM (inactive) | GI50 (TK-10): > 100 µM (inactive) | GI50 (U-251): > 100 µM (inactive) | GI50 (UACC-257): > 100 µM (inactive) | GI50 (UACC-62): > 100 µM (inactive) | GI50 (UO-31): > 100 µM (inactive)

CC1=CC2CC(C)=C(CC[C@]3(C)CC[C@H]([C@@H](C)C(=O)O)OO3)C(C)(C)C2CC1 (some centres not stated)
GI50 (786-0): 1.45 µM (inactive) | GI50 (A498): 1.75 µM (inactive) | GI50 (A549): 0.45 µM (active) | GI50 (ACHN): 1.3 µM (inactive) | GI50 (CAKI-1): 1.17 µM (inactive) | GI50 (CCRF-CEM): 0.182 µM (active) | GI50 (COLO 205): 0.403 µM (active) | GI50 (DLD-1): 0.201 µM (active) | GI50 (DMS-114): 0.376 µM (active) | GI50 (DMS-273): 0.528 µM (active) | GI50 (EKVX): 1.91 µM (inactive) | GI50 (HCC 2998): 0.292 µM (active) | GI50 (HCT-116): 0.457 µM (active) | GI50 (HCT-15): 0.675 µM | GI50 (HL-60): 0.0863 µM (active) | GI50 (HOP-18): 0.158 µM (active) | GI50 (HOP-62): 1.75 µM (inactive) | GI50 (HOP-92): 0.136 µM (active) | GI50 (HT-29): 0.182 µM (active) | GI50 (IGROV-1): 0.212 µM (active) | GI50 (K562): 0.208 µM (active) | GI50 (KM-20L2): 1.29 µM (inactive) | GI50 (KM12): 0.128 µM (active) | GI50 (LOX IMVI): 0.0792 µM (active) | GI50 (LXFL 529): 0.193 µM (active) | GI50 (M14): 1.31 µM (inactive) | GI50 (M19-MEL): 1.63 µM (inactive) | GI50 (Malme-3M): 0.771 µM (active) | GI50 (NCI-H226): 1.85 µM (inactive) | GI50 (NCI-H23): 0.9 µM (active) | GI50 (NCI-H460): 0.2 µM (active) | GI50 (NCI-H522): 0.171 µM (active) | GI50 (OVCAR-3): 1.63 µM (inactive) | GI50 (OVCAR-4): 0.442 µM (active) | GI50 (OVCAR-5): 2.34 µM (inactive) | GI50 (OVCAR-8): 0.603 µM (active) | GI50 (RPMI-8226): 0.304 µM (active) | GI50 (RXF 393): 0.372 µM (active) | GI50 (RXF 631): 1.48 µM (inactive) | GI50 (SF-268): 1.62 µM (inactive) | GI50 (SF-295): 1.36 µM (inactive) | GI50 (SF-539): 1.26 µM (inactive) | GI50 (SK-MEL-28): 1.57 µM (inactive) | GI50 (SK-MEL-2): 1.6 µM (inactive) | GI50 (SK-MEL-5): 1.26 µM (inactive) | GI50 (SK-OV-3): 2.2 µM (inactive) | GI50 (SN12C): 0.391 µM (active) | GI50 (SNB-19): 1.67 µM (inactive) | GI50 (SNB-75): 0.853 µM (active) | GI50 (SNB-78): 1.51 µM (inactive) | GI50 (SR): 0.195 µM (active) | GI50 (SW-620): 0.177 µM (active) | GI50 (TK-10): 1.76 µM (inactive) | GI50 (U-251): 0.356 µM (active) | GI50 (UACC-257): 1.53 µM (inactive) | GI50 (UACC-62): 1.49 µM (inactive) | GI50 (UO-31): 0.984 µM (active)

O=C(Nc1ccc([N+](=O)[O-])cc1C(=O)O)c1ccc([N+](=O)[O-])cc1
GI50 (786-0): 31.6 µM (inactive) | GI50 (A498): 71.9 µM (inactive) | GI50 (A549): 59.6 µM (inactive) | GI50 (ACHN): 25.3 µM (inactive) | GI50 (CCRF-CEM): 11.4 µM (inactive) | GI50 (COLO 205): > 10 µM (inactive) | GI50 (DLD-1): 35.4 µM (inactive) | GI50 (DMS-114): 5.97 µM (inactive) | GI50 (DMS-273): 31.2 µM (inactive) | GI50 (EKVX): > 100 µM (inactive) | GI50 (HCC 2998): 16 µM (inactive) | GI50 (HCT-116): 15.5 µM (inactive) | GI50 (HCT-15): 20.8 µM | GI50 (HL-60): 17.1 µM (inactive) | GI50 (HOP-62): > 100 µM (inactive) | GI50 (HOP-92): 10.8 µM (inactive) | GI50 (HT-29): 29 µM (inactive) | GI50 (IGROV-1): 29.2 µM (inactive) | GI50 (K562): 15.1 µM (inactive) | GI50 (KM-20L2): 18.4 µM (inactive) | GI50 (KM12): 24.8 µM (inactive) | GI50 (LOX IMVI): 24.2 µM (inactive) | GI50 (LXFL 529): 24.4 µM (inactive) | GI50 (M14): 36.2 µM (inactive) | GI50 (M19-MEL): 61 µM (inactive) | GI50 (MOLT-4): 14.8 µM (inactive) | GI50 (Malme-3M): 32.4 µM (inactive) | GI50 (NCI-H226): 17.5 µM (inactive) | GI50 (NCI-H460): 21 µM (inactive) | GI50 (OVCAR-3): 59.6 µM (inactive) | GI50 (OVCAR-4): 27.4 µM (inactive) | GI50 (OVCAR-5): 45.8 µM (inactive) | GI50 (OVCAR-8): 32.1 µM (inactive) | GI50 (RPMI-8226): 14.4 µM (inactive) | GI50 (RXF 631): 21.1 µM (inactive) | GI50 (SF-268): 37.7 µM (inactive) | GI50 (SF-295): > 100 µM (inactive) | GI50 (SF-539): 9.95 µM (inactive) | GI50 (SK-MEL-28): 31.1 µM (inactive) | GI50 (SK-MEL-2): 19.2 µM (inactive) | GI50 (SK-MEL-5): 51.3 µM (inactive) | GI50 (SK-OV-3): 79.3 µM (inactive) | GI50 (SN12C): 41.4 µM (inactive) | GI50 (SNB-19): 36.6 µM (inactive) | GI50 (SNB-75): > 100 µM (inactive) | GI50 (SW-620): 46.3 µM (inactive) | GI50 (TK-10): 70.3 µM (inactive) | GI50 (U-251): 37.4 µM (inactive) | GI50 (UACC-257): 40 µM (inactive) | GI50 (UACC-62): 42.8 µM (inactive) | GI50 (UO-31): 34.3 µM (inactive) | GI50 (XF498): 23.3 µM (inactive)
